Reference: patent US7323303B2, “Modified β-lactamases and uses thereof” (priority 2003, dated 2008)

Columns and labels:
E166Cf enzyme [1] = target: T1, E166Cf enzyme (Bacillus cereus, UniProt P00809, E185C); assay: Time-resolved fluorescence of E166Cf enzyme with β-lactamase inhibitors; format: biochemical; conditions: 1.0×10^−4 M inhibitor; E166Cf 1.2×10^−7 M, 50 mM phosphate buffer pH 7.0
T1 construct: made in house; host or cells: B. subtilis 1A304 (φ105MU331); then labelled chemically
T1 sequence (P00809 28-306 E185C): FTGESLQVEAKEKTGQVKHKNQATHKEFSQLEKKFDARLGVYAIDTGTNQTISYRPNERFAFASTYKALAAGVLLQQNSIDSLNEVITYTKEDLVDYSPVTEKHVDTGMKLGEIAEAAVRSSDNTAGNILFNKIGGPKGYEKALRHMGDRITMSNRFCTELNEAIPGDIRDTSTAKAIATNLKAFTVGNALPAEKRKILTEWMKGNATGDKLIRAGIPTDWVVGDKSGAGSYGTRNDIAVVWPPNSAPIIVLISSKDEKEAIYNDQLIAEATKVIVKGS
Experimental: Time-resolved fluorescence measurements of the E166Cf enzyme in the presence of sulbactam and clavulanate were performed on a Perkin Elmer LS50B spectrofluorometer. The excitation and emission wavelengths were set at 494 and 515 nm respectively. Both excitation and emission slit widths were set at 5 nm. All fluorescence measurements were performed at room temperature.
The fluorescence signals of the labeled enzyme (1.2×10^−7 M) obtained with sulbactam (1.0×10^−4 M) and clavulanate (1.0×10^−3 M) in 50 mM phosphate buffer (pH 7.0) are entirely different (FIGS. 18 and 19).

E166Cf enzyme [2] = target: T1, E166Cf enzyme; assay: Detection of β-lactam antibiotics in milk by E166Cf fluorescence; conditions: untreated milk; E166Cf 1.2×10^−7 M
Experimental: Fluorescence measurements of the E166Cf enzyme in milk in the presence of penicillin G and ampicillin were performed on a FLUOstar microplate reader (BMG Labtechnologies) equipped with two sample injectors. Excitation and emission filters of 485 and 520 nm respectively were used. Milk (pasteurized and homogenized, Nestle Dairy Farm) was purchased at a local supermarket. The labeled enzyme was mixed with the milk sample in a 96-well microtiter plate (Corning Costar). The antibiotics were then added to the mixtures by the injectors.
FIGS. 21 and 22 show the results from the time-resolved fluorescence measurements of the labeled enzyme (1.2×10^−7 M) in untreated milk in the presence of various concentrations of penicillin G and ampicillin respectively.

[3] = target: T2, B. licheniformis penP β-lactamase (Bacillus licheniformis, UniProt P00808); assay: Drug screening: E166Cf fluorescence in presence of bacterial β-lactamase culture; format: biochemical; parameters: key: −: Decline in fluorescence signal (presence of beta-lactam hydrolysis); +: No decline in fluorescence signal (absence of beta-lactam hydrolysis); conditions: antibiotic 1.0×10^−4 M, E166Cf 1.2×10^−7 M
T2 construct: made in house; host or cells: B. subtilis 1A304 (φ105MU331); whole culture used, not purified
T2 sequence (P00808 27-307): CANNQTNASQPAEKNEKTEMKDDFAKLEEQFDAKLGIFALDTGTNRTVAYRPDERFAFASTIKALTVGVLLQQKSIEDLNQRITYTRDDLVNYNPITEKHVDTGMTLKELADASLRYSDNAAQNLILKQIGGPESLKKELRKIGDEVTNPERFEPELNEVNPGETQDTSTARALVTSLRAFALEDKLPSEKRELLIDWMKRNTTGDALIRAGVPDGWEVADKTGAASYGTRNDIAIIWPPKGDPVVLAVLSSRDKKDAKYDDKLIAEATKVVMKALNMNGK
Experimental: (§1) The use of the E166Cf enzyme in screening bacterial β-lactamases against various β-lactam antibiotics was investigated. The principle of our method is that when both E166Cf and bacterial β-lactamase are incubated with ‘β-lactamase-unstable’ antibiotics, the fluorescence of the E166Cf enzyme will be suppressed because of the greater catalytic efficiency of the bacterial enzyme. In contrast, when bacterial β-lactamases are screened against ‘β-lactamase-resistant’ antibiotics, the fluorescence of the E166Cf enzyme will be enhanced because of the poor hydrolytic activity of the bacterial enzyme. Thus, any β-lactam antibiotic that causes the labeled enzyme to increase its fluorescence intensity in the presence of bacterial β-lactamases can be used in clinical treatments.
(§2) The β-lactamase II, penPC β-lactamase and penP β-lactamase were expressed in B. subtilis 1A304 (φ105MU331). These enzymes were prepared according to the procedures described previously (Reference 7: Thomwell, S. J. East, A. K., Errington, J. An efficient expression and secretion system based on Bacillus subtilis phage phi 105 and its uses for the production for B. cereus β-lactamase I. (1993) Gene 133, 47-53) with slight modifications. A bacterial strain was streaked on an agar plate containing 5 μg/ml chloramphenicol, and the plate was incubated at 37° C. for 24 h. A single bacterial colony from the agar plate was inoculated into 100 ml of sterilized BHY medium (37 g/l brain heart infusion and 5 g/l yeast extract) which was then incubated at 37° C. with shaking at 300 rpm overnight. About 7 ml of overnight inoculum was added to a baffled conical flask containing 100 ml of sterilized BHY medium. The inoculated medium was incubated at 37° C. with shaking at 300 rpm. When the optical density of the bacterial culture at 600 nm reached 3.5 to 4.0, the bacterial culture was heated in a water bath at 51° C. for 5 min. Afterwards, the bacterial culture was incubated at 37° C. with shaking at 300 rpm for a further 6 h. The bacterial culture was then harvested and stored at −20° C.
(§3) Fluorescence measurements of the E166Cf enzyme in the presence of bacterial cultures and β-lactam antibiotics were performed on a FLUOstar microplate reader (BMG Labtechnologies) equipped with two sample injectors. Excitation and emission filters of 485 and 520 nm respectively were used. For B. cereus penPC β-lactamase, B. licheniformis penP β-lactamase and B. cereus β-lactamase II, the labeled enzymes were mixed with the bacterial cultures, and the mixtures were made up to 300 μl with 50 mM phosphate buffer (pH 7.0) in a 96-well microtiter plate (Corning Costar). For the purpose of comparison, B. subtilis cultures, which produced no β-lactamase, were set up as negative controls. For E. coli. TEM-1 β-lactamase, the labeled enzymes were mixed with the bacterial cultures without dilution. E. coli. cultures, which produced no β-lactamase, were set up as negative controls for comparison. The antibiotics were then added to the bacterial samples by the injectors.
(§4) The results from the time-resolved fluorescence measurements of the labeled enzyme (1.2×10^−7 M) in the presence of various bacterial cultures and β-lactam antibiotics (1.0×10^−4 M) are shown in FIGS. 23 to 26.

[4] = target: T3, B. cereus penPC β-lactamase (Bacillus cereus, UniProt P00809); assay: as above; format: biochemical; parameters: key: −: Decline in fluorescence signal (presence of beta-lactam hydrolysis); +: No decline in fluorescence signal (absence of beta-lactam hydrolysis); conditions: antibiotic 1.0×10^−4 M, E166Cf 1.2×10^−7 M
T3 construct: made in house; host or cells: B. subtilis 1A304 (φ105MU331); whole culture used, not purified
T3 sequence (P00809 28-306): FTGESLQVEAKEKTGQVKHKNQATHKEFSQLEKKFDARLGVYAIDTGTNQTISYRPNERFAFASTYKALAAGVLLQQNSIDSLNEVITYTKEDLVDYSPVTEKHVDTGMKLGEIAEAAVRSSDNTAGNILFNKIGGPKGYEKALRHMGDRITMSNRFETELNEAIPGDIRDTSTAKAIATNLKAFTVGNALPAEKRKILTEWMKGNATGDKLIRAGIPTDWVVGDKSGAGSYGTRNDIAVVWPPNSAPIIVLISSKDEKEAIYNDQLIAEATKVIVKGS
Experimental: as §1, §2, §3, §4

B. cereus β-lactamase II = target: T4, B. cereus β-lactamase II (Bacillus cereus, UniProt P04190); assay: as above; format: biochemical; parameters: key: −: Decline in fluorescence signal (presence of beta-lactam hydrolysis); +: No decline in fluorescence signal (absence of beta-lactam hydrolysis); conditions: antibiotic 1.0×10^−4 M, E166Cf 1.2×10^−7 M
T4 construct: made in house; host or cells: B. subtilis 1A304 (φ105MU331); whole culture used, not purified
T4 sequence (P04190 31-257): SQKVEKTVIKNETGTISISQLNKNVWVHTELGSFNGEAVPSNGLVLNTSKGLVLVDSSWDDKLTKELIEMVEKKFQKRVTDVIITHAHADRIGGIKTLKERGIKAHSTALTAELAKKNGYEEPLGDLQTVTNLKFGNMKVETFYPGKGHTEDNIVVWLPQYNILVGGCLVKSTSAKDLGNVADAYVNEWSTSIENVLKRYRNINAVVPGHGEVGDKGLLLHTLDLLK
Experimental: as §1, §2, §3, §4

[5] = target: T5, E166Cf (fluorescein-labeled E166C mutant of β-lactamase I) (Bacillus cereus, UniProt P00809, E185C); assay: Spectrophotometric substrate hydrolysis, steady-state kinetics; format: biochemical; conditions: E166Cf; 50 mM potassium phosphate buffer pH 7.0, 20° C.
T5 construct: made in house; host or cells: B. subtilis 1A304 (φ105MU331); then labelled chemically
T5 sequence (P00809 28-306 E185C): T1 sequence (P00809 28-306 E185C)
Experimental: (§5) The hydrolytic activities of the wild-type β-lactamase I, E166C and E166Cf mutants towards penicillin G, penicillin V and ampicillin (Sigma) were monitored by the spectrophotometric method. The spectrophotometric measurements were performed on a Perkin Elmer Lambda Bio20 UV/Vis spectrometer. Substrate hydrolysis was monitored at a fixed wavelength: 235 nm for ampicillin, 232 nm for penicillin G and penicillin V. The initial rate of substrate hydrolysis occurring within 5 min was determined in duplicate at each of 6 different substrate concentrations in 50 mM potassium phosphate buffer (pH 7.0) at 20° C. The initial rates determined were then treated as described in Reference 5 to calculate the Michaelis constants (Km) and turnover numbers (kcat) using non-linear regression analysis (equation 1):
(§6) [formula] where v is the initial rate of substrate hydrolysis, Vmax the maximum rate of reaction, [S] the initial substrate concentration, Km the Michaelis constant and kcat=Vmax/[Enzyme].
(§7) The measured steady-state kinetic parameters for hydrolysis of penicillin G, penicillin V and ampicillin by the wild-type β-lactamase I, E166C and E166Cf mutants are summarized in Table 1.
At high substrate concentration (1.0×10^−5 and 1.0×10^−4 M), the penicillin substrates rapidly occupy the active sites to form the ES complexes, thus switching on the fluorescence of the fluorescein labels instantaneously. […] This can be verified by the fact that the ‘plateau time’ (8 and 22 min for 1.0×10^−5 and 1.0×10^−4 M penicillin G respectively) is consistent with the ‘substrate hydrolysis time’ determined by spectrophotometric assays (7 and 20 min for 1.0×10^−5 and 1.0×10^−4 M penicillin G respectively). When most of the penicillin substrates have been hydrolyzed to carboxylic acids, the fluorescence signal of the labeled enzyme will decline subsequently.

[6] = target: T6, E. coli TEM-1 β-lactamase (Escherichia coli, UniProt P62593); assay: Drug screening: E166Cf fluorescence in presence of bacterial β-lactamase culture; format: biochemical; parameters: key: −: Decline in fluorescence signal (presence of beta-lactam hydrolysis); +: No decline in fluorescence signal (absence of beta-lactam hydrolysis); conditions: E. coli TEM-1 culture, undiluted; antibiotic 1.0×10^−4 M; E166Cf 1.2×10^−7 M
T6 construct: made in house; host or cells: E. coli BL21(DE3); whole overnight culture used undiluted, not purified
T6 sequence (P62593 24-286 limits assumed): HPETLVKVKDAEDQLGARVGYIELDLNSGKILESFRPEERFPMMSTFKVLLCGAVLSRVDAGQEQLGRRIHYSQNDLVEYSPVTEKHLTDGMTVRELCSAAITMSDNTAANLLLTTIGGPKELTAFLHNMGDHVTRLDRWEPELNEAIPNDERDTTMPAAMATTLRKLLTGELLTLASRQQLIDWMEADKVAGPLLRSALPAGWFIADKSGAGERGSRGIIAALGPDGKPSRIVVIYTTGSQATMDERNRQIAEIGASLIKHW
Experimental: as §1
The TEM-1 β-lactamase was expressed in E. coli. BL21(DE3). Preparation of the TEM-1 β-lactamase was performed as follows. A bacterial strain was streaked on an agar plate containing 100 μg/ml ampicillin, and the plate was incubated at 37° C. for 24 h. A single bacterial colony from the plate was inoculated into 100 ml of sterilized LB broth (28 g/l) which was then incubated at 37° C. with shaking at 280 rpm overnight. After overnight incubation, the bacterial culture was harvested and stored at −20° C.
as §3, §4

[7] = target: T7, E166C mutant of β-lactamase I (Bacillus cereus, UniProt P00809, E185C); assay: Spectrophotometric substrate hydrolysis, steady-state kinetics; format: biochemical; conditions: 50 mM potassium phosphate buffer pH 7.0, 20° C.
T7 construct: made in house; host or cells: B. subtilis 1A304 (φ105MU331)
T7 sequence (P00809 28-306 E185C): T1 sequence (P00809 28-306 E185C)
Experimental: as §5, §6, §7

SMILES	time course of E166Cf fluorescence intensity at 515 nm (E166Cf enzyme [1])	lowest concentration detected by the labeled enzyme (E166Cf enzyme [2])	fluorescence signal of E166Cf (beta-lactam hydrolysis) [3]	fluorescence signal of E166Cf (beta-lactam hydrolysis) [4]	fluorescence signal of E166Cf (beta-lactam hydrolysis) (B. cereus β-lactamase II)	Km [5] [µM]	kcat [5] [s⁻¹]	fluorescence signal of E166Cf (beta-lactam hydrolysis) [6]	Km [7] [µM]	kcat [7] [s⁻¹]
CC1(C)[C@H](C(=O)O)N2C(=O)C[C@H]2S1(=O)=O [sulbactam]	increases rapidly at the initial stage and then declines slowly									
CC1(C)S[C@@H]2[C@H](NC(=O)[C@H](N)c3ccccc3)C(=O)N2[C@H]1C(=O)O [Ampicillin, ampicillin]		10^−6 M	−	−	−	262 ± 31	6.2 ± 0.2	−	306 ± 30	4.1 ± 0.1
